Our source for the Kd values is patent US8133998B2, “Bicyclic pyrimidine derivatives as calcium channel blockers” (Zalicus Pharmaceuticals, Ltd., priority 2007, dated 2012).

In general, Kd refers to the equilibrium constant for the complex coming apart.

T2 sequence (O95180 whole entry): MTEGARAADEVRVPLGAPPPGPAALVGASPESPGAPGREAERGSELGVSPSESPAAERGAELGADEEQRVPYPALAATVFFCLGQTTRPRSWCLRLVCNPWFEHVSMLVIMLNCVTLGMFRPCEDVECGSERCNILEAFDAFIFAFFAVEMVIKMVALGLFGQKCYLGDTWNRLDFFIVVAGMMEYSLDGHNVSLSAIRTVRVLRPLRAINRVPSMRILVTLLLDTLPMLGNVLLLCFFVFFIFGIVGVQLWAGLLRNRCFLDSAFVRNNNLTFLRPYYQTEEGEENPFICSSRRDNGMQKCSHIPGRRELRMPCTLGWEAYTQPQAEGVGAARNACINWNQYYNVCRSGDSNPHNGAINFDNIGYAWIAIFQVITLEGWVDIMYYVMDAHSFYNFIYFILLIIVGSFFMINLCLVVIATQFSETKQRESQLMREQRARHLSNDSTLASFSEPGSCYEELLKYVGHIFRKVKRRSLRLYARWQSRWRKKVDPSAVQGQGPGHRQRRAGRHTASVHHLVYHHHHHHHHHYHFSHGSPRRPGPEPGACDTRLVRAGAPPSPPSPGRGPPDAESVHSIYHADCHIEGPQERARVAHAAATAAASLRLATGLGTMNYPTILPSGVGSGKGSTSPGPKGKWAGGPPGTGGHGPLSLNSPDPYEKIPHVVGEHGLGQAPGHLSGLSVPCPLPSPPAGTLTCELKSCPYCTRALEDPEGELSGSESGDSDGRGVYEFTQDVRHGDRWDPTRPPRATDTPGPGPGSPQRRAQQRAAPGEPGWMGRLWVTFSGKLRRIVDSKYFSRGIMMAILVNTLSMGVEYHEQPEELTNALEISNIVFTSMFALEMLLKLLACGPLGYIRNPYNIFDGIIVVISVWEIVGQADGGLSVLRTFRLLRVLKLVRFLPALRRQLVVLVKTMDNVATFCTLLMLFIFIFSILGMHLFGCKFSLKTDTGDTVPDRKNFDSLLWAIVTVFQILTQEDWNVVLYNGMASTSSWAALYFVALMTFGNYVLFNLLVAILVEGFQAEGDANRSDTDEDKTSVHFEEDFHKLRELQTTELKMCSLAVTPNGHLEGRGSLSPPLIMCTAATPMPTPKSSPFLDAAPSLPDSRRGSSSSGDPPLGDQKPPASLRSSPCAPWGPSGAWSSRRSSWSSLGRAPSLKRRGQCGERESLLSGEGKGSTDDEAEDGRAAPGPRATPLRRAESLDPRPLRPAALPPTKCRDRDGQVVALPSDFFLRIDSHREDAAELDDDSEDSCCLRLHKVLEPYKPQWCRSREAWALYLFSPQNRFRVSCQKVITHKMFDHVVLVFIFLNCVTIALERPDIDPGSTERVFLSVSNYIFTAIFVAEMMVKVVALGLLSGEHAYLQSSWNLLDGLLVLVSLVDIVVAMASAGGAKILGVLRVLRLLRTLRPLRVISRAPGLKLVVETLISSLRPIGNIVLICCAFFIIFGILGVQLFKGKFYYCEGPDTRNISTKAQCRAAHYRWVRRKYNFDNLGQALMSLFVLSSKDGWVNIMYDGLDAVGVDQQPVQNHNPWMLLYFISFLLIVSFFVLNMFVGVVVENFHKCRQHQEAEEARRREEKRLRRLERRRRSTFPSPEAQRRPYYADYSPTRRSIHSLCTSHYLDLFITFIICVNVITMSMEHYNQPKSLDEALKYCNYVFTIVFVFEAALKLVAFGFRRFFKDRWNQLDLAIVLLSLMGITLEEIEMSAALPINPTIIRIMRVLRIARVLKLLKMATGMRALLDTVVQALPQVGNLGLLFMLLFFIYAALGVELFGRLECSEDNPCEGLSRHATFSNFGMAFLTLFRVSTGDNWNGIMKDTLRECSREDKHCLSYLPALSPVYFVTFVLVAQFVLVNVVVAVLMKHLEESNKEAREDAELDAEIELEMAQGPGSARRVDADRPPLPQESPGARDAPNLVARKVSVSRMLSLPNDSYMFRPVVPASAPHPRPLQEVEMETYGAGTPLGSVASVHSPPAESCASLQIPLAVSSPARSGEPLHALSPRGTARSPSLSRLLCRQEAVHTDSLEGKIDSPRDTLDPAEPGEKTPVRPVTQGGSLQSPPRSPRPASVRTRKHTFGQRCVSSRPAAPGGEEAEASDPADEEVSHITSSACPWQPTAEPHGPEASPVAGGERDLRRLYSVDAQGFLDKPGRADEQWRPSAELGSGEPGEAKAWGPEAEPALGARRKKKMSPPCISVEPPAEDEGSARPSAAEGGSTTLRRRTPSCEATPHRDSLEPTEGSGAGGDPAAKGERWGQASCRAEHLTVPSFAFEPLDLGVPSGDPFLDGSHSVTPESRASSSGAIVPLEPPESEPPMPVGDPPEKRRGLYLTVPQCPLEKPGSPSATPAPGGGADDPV

One test deals with T1, human α1G T-type channels (Homo sapiens, UniProt O43497).
T1 construct: expressed in transfected cells; host or cells: HEK 293
T1 sequence (O43497 whole entry): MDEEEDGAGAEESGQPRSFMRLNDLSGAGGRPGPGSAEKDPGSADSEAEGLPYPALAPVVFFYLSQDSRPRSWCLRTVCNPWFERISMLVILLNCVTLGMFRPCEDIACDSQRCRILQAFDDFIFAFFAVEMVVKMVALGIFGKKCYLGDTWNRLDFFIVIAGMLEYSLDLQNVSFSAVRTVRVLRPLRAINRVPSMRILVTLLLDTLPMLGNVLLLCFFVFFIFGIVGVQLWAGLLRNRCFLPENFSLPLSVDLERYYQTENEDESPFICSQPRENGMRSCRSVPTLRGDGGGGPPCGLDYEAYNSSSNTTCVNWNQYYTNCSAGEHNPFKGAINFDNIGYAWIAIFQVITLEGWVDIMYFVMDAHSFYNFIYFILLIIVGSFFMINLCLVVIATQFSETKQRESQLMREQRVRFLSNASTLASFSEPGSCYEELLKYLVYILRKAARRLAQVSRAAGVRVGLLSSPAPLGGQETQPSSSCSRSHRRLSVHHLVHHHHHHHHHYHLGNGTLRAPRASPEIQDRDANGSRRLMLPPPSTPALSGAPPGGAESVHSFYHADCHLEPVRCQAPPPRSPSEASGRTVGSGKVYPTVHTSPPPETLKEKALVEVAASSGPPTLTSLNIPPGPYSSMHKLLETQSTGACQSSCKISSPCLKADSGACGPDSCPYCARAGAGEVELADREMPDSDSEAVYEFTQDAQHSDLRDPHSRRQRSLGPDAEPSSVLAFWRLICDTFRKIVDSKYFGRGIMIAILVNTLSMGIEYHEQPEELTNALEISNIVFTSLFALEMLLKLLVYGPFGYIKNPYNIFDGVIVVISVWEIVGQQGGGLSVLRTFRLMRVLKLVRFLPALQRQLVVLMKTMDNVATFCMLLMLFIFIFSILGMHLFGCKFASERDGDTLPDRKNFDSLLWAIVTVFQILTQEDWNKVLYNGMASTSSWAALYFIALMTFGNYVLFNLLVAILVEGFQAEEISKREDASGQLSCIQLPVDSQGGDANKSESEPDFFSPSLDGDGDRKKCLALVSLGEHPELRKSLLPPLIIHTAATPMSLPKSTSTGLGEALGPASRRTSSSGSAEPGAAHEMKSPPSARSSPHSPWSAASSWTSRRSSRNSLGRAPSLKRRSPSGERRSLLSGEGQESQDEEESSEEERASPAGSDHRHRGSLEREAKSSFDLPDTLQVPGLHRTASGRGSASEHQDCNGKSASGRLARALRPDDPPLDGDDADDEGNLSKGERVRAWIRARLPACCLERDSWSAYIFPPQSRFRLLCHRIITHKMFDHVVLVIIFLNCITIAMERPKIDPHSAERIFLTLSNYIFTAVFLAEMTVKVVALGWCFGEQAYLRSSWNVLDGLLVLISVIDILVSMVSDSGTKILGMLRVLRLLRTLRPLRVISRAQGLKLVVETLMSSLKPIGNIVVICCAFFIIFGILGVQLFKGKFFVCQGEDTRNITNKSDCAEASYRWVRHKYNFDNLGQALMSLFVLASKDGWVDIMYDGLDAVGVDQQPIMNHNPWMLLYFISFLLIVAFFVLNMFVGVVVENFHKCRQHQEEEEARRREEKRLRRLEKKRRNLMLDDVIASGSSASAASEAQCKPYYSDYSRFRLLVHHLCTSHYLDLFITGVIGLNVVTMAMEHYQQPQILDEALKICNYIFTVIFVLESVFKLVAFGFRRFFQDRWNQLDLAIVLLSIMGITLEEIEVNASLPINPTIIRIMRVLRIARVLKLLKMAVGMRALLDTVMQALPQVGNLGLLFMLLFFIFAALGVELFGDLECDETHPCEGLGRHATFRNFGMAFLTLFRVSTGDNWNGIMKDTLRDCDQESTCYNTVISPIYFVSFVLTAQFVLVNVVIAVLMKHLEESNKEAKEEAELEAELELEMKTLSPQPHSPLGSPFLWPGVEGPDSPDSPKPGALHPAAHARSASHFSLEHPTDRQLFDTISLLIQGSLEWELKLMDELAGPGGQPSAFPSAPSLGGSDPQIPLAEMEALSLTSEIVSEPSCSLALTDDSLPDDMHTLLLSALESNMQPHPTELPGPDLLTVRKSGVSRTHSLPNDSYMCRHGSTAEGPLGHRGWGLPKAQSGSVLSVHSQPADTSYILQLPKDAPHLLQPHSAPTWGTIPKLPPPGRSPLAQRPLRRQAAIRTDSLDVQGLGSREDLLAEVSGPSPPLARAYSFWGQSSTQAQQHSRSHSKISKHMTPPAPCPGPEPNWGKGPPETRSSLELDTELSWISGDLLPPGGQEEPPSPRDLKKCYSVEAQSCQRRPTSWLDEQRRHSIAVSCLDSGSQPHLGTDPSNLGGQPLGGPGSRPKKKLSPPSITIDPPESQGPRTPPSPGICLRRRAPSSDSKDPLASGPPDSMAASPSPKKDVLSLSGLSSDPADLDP
The test can be described thus: T-type calcium channel block, whole cell patch clamp in HEK cells. The note with it: HEK cells stably expressing human α1G; measured at 1 μM drug; mainly non-inactivated protocol. The test is classed as cell-based. On the procedure:
(§1) T-type calcium channel blocking activity was assayed in human embryonic kidney cells, HEK 293, stably transfected with the T-type calcium channel subunits. Briefly, cells were cultured in Dulbecco's modified eagle medium (DMEM) supplemented with 10% fetal bovine serum, 200 U/ml penicillin and 0.2 mg/ml streptomycin at 37° C. with 5% CO2. At 85% confluency cells were split with 0.25% trypsin/1 mM EDTA and plated at 10% confluency on glass coverslips. At 12 hours the medium was replaced and the cells stably transfected using a standard calcium phosphate protocol and the appropriate calcium channel cDNA's. Fresh DMEM was supplied and the cells transferred to 28° C./5% CO2. Cells were incubated for 1 to 2 days prior to whole cell recording.
(§2) Standard patch-clamp techniques were employed to identify blockers of T-type currents. Briefly, previously described HEK cell lines stably expressing human α1G, α1H and α1I T-type channels were used for all the recordings (passage #: 4-20, 37° C., 5% CO2). Whole cell patch clamp experiments were performed using an Axopatch 200B amplifier (Axon Instruments, Burlingame, Calif.) linked to a personal computer equipped with pCLAMP software. Data were analyzed using Clampfit (Axon Instruments) and SigmaPlot 4.0 (Jandel Scientific). To obtain T-type currents, plastic dishes containing semi-confluent cells were positioned on the stage of a ZEISS AXIOVERT S100 microscope after replacing the culture medium with external solution (see below). Whole-cell patches were obtained using pipettes (borosilicate glass with filament, O.D.: 1.5 mm, I.D.: 0.86 mm, 10 cm length), fabricated on a SUTTER P-97 puller with resistance values of ˜5 MΩ (see below for internal solution).
(§3) In the non-inactivating protocol, the holding potential is set at −110 mV and with a pre-pulse at −100 mV for 1 second prior to the test pulse at −40 mV for 50 ms. In the inactivation protocol, the pre-pulse is at approximately −85 mV for 1 second, which inactivates about 15% of the T-type channels.
(§4) Test compounds were dissolved in external solution, 0.1-0.01% DMSO. After ˜10 min rest, they were applied by gravity close to the cell using a WPI microfil tubing. The “non-inactivated” pre-pulse was used to examine the resting block of a compound. The “inactivated” protocol was employed to study voltage-dependent block. However, the initial data shown below were mainly obtained using the non-inactivated protocol only. Kd values are shown for various compounds of the invention in Table 4 measured at 1 μM for the drug of interest except for compound 18 which was measured at 200 nM.
(In patch-clamp work, channel activity is measured electrically.)
Consider `Cc1c(C(=O)N2CCN(c3cccc(C(F)(F)F)c3)CC2)sc2ncn(CC(=O)NC(C)(C)C)c(=O)c12` [Compound 12, N-tert-butyl-2-(5-methyl-4-oxo-6-(4-(3-(trifluoromethyl)phenyl)piperazine-1-carbonyl)thieno[2,3-d]pyrimidin-3(4H)-yl)acetamide], for which the Kd turned out to be 1.96 µM.

For `Cc1c(C(=O)N2CCC(C(F)(F)F)CC2)sc2ncn(CC(=O)Nc3cccc(C(F)(F)F)c3)c(=O)c12` [Compound 63], the Kd was 1.84 µM.

As to `Cc1c(C(=O)N2CC[C@H](F)C2)sc2ncn(CC(=O)Nc3cc(C(F)(F)F)cc(C(F)(F)F)c3)c(=O)c12` [Compound 71, (S)-N-(3,5-bis(trifluoromethyl)phenyl)-2-(5-methyl-4-oxo-6-(3-fluoropyrrolidine-1-carbonyl)thieno[2,3-d]pyrimidin-3(4H)-yl)acetamide], the Kd was more than 74.3 µM.

Take `Cc1c(C(N)=O)sc2ncn(CC(=O)Nc3cc(C(F)(F)F)cc(C(F)(F)F)c3)c(=O)c12` [Compound 67, 3-(2-(3,5-bis(trifluoromethyl)phenylamino)-2-oxoethyl)-5-methyl-4-oxo-3,4-dihydrothieno[2,3-d]pyrimidine-6-carboxamide]: the Kd is 2.8 µM.

In the case of `Cc1c(C(=O)N2CCN(c3ccccc3F)CC2)sc2ncn(CCN3CCCC3=O)c(=O)c12` [Compound 95, 6-(4-(2-fluorophenyl)piperazine-1-carbonyl)-5-methyl-3-(2-(2-oxopyrrolidin-1-yl)ethyl)thieno[2,3-d]pyrimidin-4(3H)-one], the Kd was 2.66 µM.

As for `Cc1c(C(=O)NC(C)(C)C)sc2ncn(CC(=O)Nc3cc(C(F)(F)F)cc(C(F)(F)F)c3)c(=O)c12` [Compound 68, 3-(2-(3,5-bis(trifluoromethyl)phenylamino)-2-oxoethyl)-N-tert-butyl-5-methyl-4-oxo-3,4-dihydrothieno[2,3-d]pyrimidine-6-carboxamide], the equilibrium dissociation constant (Kd) is 0.4 µM.

Consider `CCN(CC)C(=O)Cn1cnc2sc(C(=O)N3CCN(c4ccccc4C(F)(F)F)CC3)c(C)c2c1=O` [Compound 9, N,N-diethyl-2-(5-methyl-4-oxo-6-(4-(2-(trifluoromethyl)phenyl)piperazine-1-carbonyl)thieno[2,3-d]pyrimidin-3(4H)-yl)acetamide], for which the Kd was 3.73 µM.

Regarding `Cc1c(C(=O)N2CCN(c3ccc(Cl)cc3)CC2)sc2ncn(CCN3CCCC3=O)c(=O)c12` [Compound 94, 6-(4-(4-chlorophenyl)piperazine-1-carbonyl)-5-methyl-3-(2-(2-oxopyrrolidin-1-yl)ethyl)thieno[2,3-d]pyrimidin-4(3H)-one], the Kd was 20.3 µM.

With `Cc1c(C(=O)N2CCN(c3cc(C(F)(F)F)cc(C(F)(F)F)c3)CC2)sc2ncn(CCN3CCCC3=O)c(=O)c12` [Compound 93, 6-(4-(3,5-bis(trifluoromethyl)phenyl)piperazine-1-carbonyl)-5-methyl-3-(2-(2-oxopyrrolidin-1-yl)ethyl)thieno[2,3-d]pyrimidin-4(3H)-one], the Kd came to 2.7 µM.

For the molecule `CCN(CC)C(=O)Cn1cnc2sc(C(=O)N3CCN(c4ccccc4Cl)CC3)c(C)c2c1=O` [Compound 4, 2-(6-(4-(2-chlorophenyl)piperazine-1-carbonyl)-5-methyl-4-oxothieno[2,3-d]pyrimidin-3(4H)-yl)-N,N-diethylacetamide], the Kd came out at 4.12 µM.

For the molecule `Cc1c(C(=O)N2CCN(c3cccc(Cl)c3)CC2)sc2ncn(CC(=O)N3CCCC3)c(=O)c12` [Compound 136, 6-(4-(3-chloro-phenyl)piperazine-1-carbonyl)-5-methyl-3-(2-oxo-2-(pyrrolidin-1-yl)ethyl)thieno[2,3-d]pyrimidin-4(3H)-one], the Kd was 1.56 µM.

Take `O=C(Cn1cnc2ccc(C(=O)N3CCN(c4cccc(Cl)c4)CC3)cc2c1=O)N1CCCC1` [Compound 115, 6-(4-(3-chlorophenyl)piperazine-1-carbonyl)-3-(2-oxo-2-(pyrrolidin-1-yl)ethyl) quinazolin-4(3H)-one]: the Kd was 4.28 µM.

For the molecule `Cc1c(C(=O)N2CCCC2)sc2ncn(CC(=O)Nc3cc(C(F)(F)F)cc(C(F)(F)F)c3)c(=O)c12` [Compound 70, N-(3,5-bis(trifluoromethyl)phenyl)-2-(5-methyl-4-oxo-6-(pyrrolidine-1-carbonyl)thieno[2,3-d]pyrimidin-3(4H)-yl)acetamide], the dissociation constant Kd was 5.31 µM.

As to `CCN(CC(F)(F)F)C(=O)Cn1cnc2sc(C(=O)N3CCN(c4ccccc4F)CC3)c(C)c2c1=O` [Compound 128, N-ethyl-2-(6-(4-(2-fluoro-phenyl)piperazine-1-carbonyl)-5-methyl-4-oxothieno[2,3-d]pyrimidin-3(4H)-yl)-N-(2,2,2-trifluoroethyl)acetamide], the Kd was found to be 3.6 µM.

Another test concerns the target T2, human α1H T-type channels (Homo sapiens, UniProt O95180).
T2 construct: expressed in transfected cells; host or cells: HEK 293
Described as above. Format: cell-based. Conditions: HEK cells stably expressing human α1H; measured at 1 μM drug; mainly non-inactivated protocol. The procedure:
as §1, §2, §3, §4
On to `Cc1c(C(=O)N2CCN(c3cccc([N+](=O)[O-])c3)CC2)sc2ncn(CC(=O)NC3CCCCC3)c(=O)c12` [Compound 29, N-cyclohexyl-2-(5-methyl-6-(4-(3-nitrophenyl)piperazine-1-carbonyl)-4-oxothieno[2,3-d]pyrimidin-3(4H)-yl)acetamide], for which the dissociation constant (Kd) was 0.95 µM.

Turning to `Cc1c(C(=O)N2CCN(c3cccc(C(F)(F)F)c3)CC2)sc2ncn(CC(=O)NC(C)(C)C)c(=O)c12` [Compound 12, N-tert-butyl-2-(5-methyl-4-oxo-6-(4-(3-(trifluoromethyl)phenyl)piperazine-1-carbonyl)thieno[2,3-d]pyrimidin-3(4H)-yl)acetamide], the Kd was 1.06 µM.

As for `Cc1c(C(=O)N2CCN(c3ccccc3F)CC2)sc2ncn(CC(=O)N3CCC(F)(F)C3)c(=O)c12` [Compound 79, 3-(2-(3,3-difluoropyrrolidin-1-yl)-2-oxoethyl)-6-(4-(2-fluorophenyl)piperazine-1-carbonyl)-5-methylthieno[2,3-d]pyrimidin-4(3H)-one], the Kd was 4.64 µM.

Consider `Cc1c(C(=O)N2CCN(c3ccccc3)CC2)sc2ncn(C(C)C(=O)NC3CCCC3)c(=O)c12` (centres unmarked) [Compound 46, N-cyclopentyl-2-(5-methyl-4-oxo-6-(4-phenylpiperazine-1-carbonyl)thieno[2,3-d]pyrimidin-3(4H)-yl)propanamide], for which the Kd turned out to be 0.52 µM.

Regarding `Cc1c(C(=O)N2CCN(c3ccccc3F)CC2)sc2ncn(C(C)C(=O)NC3CCCC3)c(=O)c12` (centres unmarked) [Compound 47, N-cyclopentyl-2-(6-(4-(2-fluorophenyl)piperazine-1-carbonyl)-5-methyl-4-oxothieno[2,3-d]pyrimidin-3(4H)-yl)propanamide], the Kd was found to be 0.56 µM.

In the case of `Cc1c(C(=O)N2CCN(c3ccccc3)CC2)sc2ncn(CC(=O)NC(C)(C)C)c(=O)c12` [Compound 13, N-tert-butyl-2-(5-methyl-4-oxo-6-(4-phenylpiperazine-1-carbonyl)thieno[2,3-d]pyrimidin-3(4H)-yl)acetamide], the Kd amounted to 2.14 µM.

On to `Cc1c(C(=O)N2CCN(c3ccccc3F)CC2)sc2ncn(C(C)C(=O)NC3CCCCC3)c(=O)c12` (centres unmarked) [Compound 34, N-cyclohexyl-2-(6-(4-(2-fluorophenyl)piperazine-1-carbonyl)-5-methyl-4-oxothieno[2,3-d]pyrimidin-3(4H)-yl)propanamide], for which the Kd was found to be 0.44 µM.

Consider `Cc1c(C(=O)N2CCN(c3ccccc3)CC2)sc2ncn(CC(=O)NC3CCCC3)c(=O)c12` [Compound 41, N-cyclopentyl-2-(5-methyl-4-oxo-6-(4-phenylpiperazine-1-carbonyl)thieno[2,3-d]pyrimidin-3(4H)-yl)acetamide], for which the Kd came out at 0.83 µM.

As for `Cc1c(C(=O)N2CCN(c3ccc(F)cc3)CC2)sc2ncn(CC(=O)N3CC[C@H](F)C3)c(=O)c12` [Compound 91, (S)-6-(4-(4-fluorophenyl)-piperazine-1-carbonyl)-3-(2-(3-fluoropyrrolidin-1-yl)-2-oxoethyl)-5-methylthieno[2,3-d]pyrimidin-4(3H)-one], the Kd was found to be 6.31 µM.

For the molecule `Cc1c(C(=O)N2CCN(c3ccccc3F)CC2)sc2ncn(CC(=O)Nc3ccccc3)c(=O)c12` [Compound 51, 2-(6-(4-(2-fluorophenyl)piperazine-1-carbonyl)-5-methyl-4-oxothieno[2,3-d]pyrimidin-3(4H)-yl)-N-phenylacetamide], the Kd was 0.57 µM.

Take `Cc1c(C(=O)N2CCN(c3ccc(F)cc3)CC2)sc2ncn(CC(=O)N3CCC(F)(F)C3)c(=O)c12` [Compound 90]: the Kd worked out at 2.44 µM.

Consider `CCN(CC)C(=O)Cn1cnc2sc(C(=O)N3CCN(c4cccc(F)c4)CC3)c(C)c2c1=O` [Compound 7, N,N-diethyl-2-(6-(4-(3-fluorophenyl)piperazine-1-carbonyl)-5-methyl-4-oxothieno[2,3-d]pyrimidin-3(4H)-yl)acetamide], for which the Kd stood at 1.14 µM.
